Patent US11001591B2, “TRAF 6 inhibitors” (HELMHOLTZ ZENTRUM MUENCHEN—DEUTSCHES FORSCHUNGSZENTRUM FÜR …, priority 2016, dated 2021)

Assays:
ICAM-1 and A20 = test: mRNA expression of NF-κB target genes in MEF cells; type: cell-based, mouse
Description: For MEF cells, 1.2×10^5 cells per sample were seeded, treated with compound for 6 hours and stimulated with either IL-1β or TNFα for 60 minutes. Jurkat T-cells and primary mouse CD4^+ T-cells were seeded at 2×10^5 cells per sample, also treated with compound for 6 hours and stimulated with PMA/lonomycin for 3 hours. RNA was isolated according to the manufacturer's protocol of the Qiagen RNeasy Kit (MEF cells) or the STRATEC INVITRAP® SPIN UNIVERSAL RNA MINI KIT (Jurkat T-cells). The isolation of mRNA from […] white adipose tissue from DIO mice was performed using TRIzol® Reagent according to manufacturer's instruction. To clear the isolated RNA from genomic DNA, samples (up to 5 μg RNA) were treated with RQ1 RNase-Free DNaseI (Promega) as described in the technical manual. For the reverse transcription of RNA into cDNA, the DNaseI digested RNA samples were processed using the SuperScript III First Strand cDNA Synthesis System (Invitrogen/ThermoFisher Scientific) following the manufacturer's protocol. […] For quantification of cDNA in the samples, the LightCylcer480 (Roche) and the KAPA SYBR FAST qPCR Kit were used. For relative quantification, the ΔΔCp method first described by Pfaffl (Pfaffl, M. W., A new mathematical model for relative quantification in real-time RT-PCR. Nucleic Acids Res, 2001. 29(9): p. e45) was applied.

TRAF6-UBC13 interaction = molecular target: T1, TRAF6-UBC13 interaction (Homo sapiens, UniProt Q9Y4K3); test: ALPHAScreen TRAF6WTStrepII-Ubc13FH interaction assay; type: binding; settings: inhibition of TRAF6-UBC13 interaction
T1 construct: RING-Zincfinger1 (RZ1) domain (residues 50-159) of TRAF6 wildtype; made in house; host or cells: E. coli BL21 codon plus RIPL
T1 sequence (Q9Y4K3 50-159): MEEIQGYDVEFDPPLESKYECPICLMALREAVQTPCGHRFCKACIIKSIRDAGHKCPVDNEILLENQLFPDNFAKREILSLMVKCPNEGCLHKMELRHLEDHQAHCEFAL
Text: In order to identify small molecules that specifically target the RZ1 domain of TRAF6 and thereby prevent its binding to Ubc13, the ALPHAScreen technology (PerkinElmer) was chosen to detect TRAF6WTStrepII-Ubc13FH interaction in High-Throughput-Screenings as well as Structure Activity Relationship (SAR) analysis.
For performance of an automated ALPHAScreen assay, all following components were pre-diluted in ALPHAScreen buffer (1×PBS, 0.5% BSA, 0.01% Tween-20). First, the TRAF6 protein (end concentration 100 nM, 30 μL volume) was added to 384-well-opti-plates involving the MultiFlo dispensing system (BioTek) followed by transfer of the compounds via the Sciclone G3 transfer station (PerkinElmer). After addition of Ubc13FH (end concentration 75 nM, 10 μL volume) with the MultiFlo system and incubation for one hour at room temperature, both beads (Strep-Tactin Alpha Donor beads and Nickel-Chelate acceptor beads; end concentrations 4 μg each, 10 μL volume each) were mixed and added using the MultiFlo system in subdued light. Read-out of the plates occurred after another hour of incubation at room temperature. Statistical parameters including the coefficient of variation, Z′ factor and signal window were calculated to determine the quality of the HTS campaign. To evaluate the efficacy of the compounds, ALPHAScreen units of compound-treated samples were referred to DMSO control treated samples. Thereby, the TRAF6D57K mutant served as the control for minimum signal and was included on every plate of the screening. Compounds that inhibited TRAF6WTStrepII-Ubc13FH by more than 25% were considered as actives. After elimination of ALPHAScreen frequent hitter compounds and His-tag frequent hitters (Schorpp, K., I. Rothenaigner, E. Salmina, et al., Identification of Small-Molecule Frequent Hitters from AlphaScreen High-Throughput Screens. J Biomol Screen, 2014. 19(5): p. 715-26), 178 compounds were defined as primary hits and were subsequently tested in five-point serial dilution assays (2.5-40 μM) in TRAF6WTStrepII-Ubc13FH ALPHAScreen experiments. Only compounds with dose-dependent effects on TRAF6WTStrepII-Ubc13FH (n=27) were taken for further research. For analog testing, all compounds were analyzed in ten-point titration (0.2-100 μM) in TRAF6WTStrepII-Ubc13FH ALPHAScreen experiments. In parallel, the compounds were tested in the ALPHAScreen TruHits Kit (PerkinElmer) to rule out unspecific interference with the ALPHAScreen technology.

[1] = test system: TRAF6 auto-ubiquitination; test: TRAF6 auto-ubiquitination in Jurkat T-cells; type: cell-based, human; settings: PMA/Ionomycin
[2] = test system: Collagen-Induced Arthritis, DBA1/J mice; test: Collagen-Induced Arthritis (CIA) model; type: in vivo, mouse
Description: In order to test the potential of C25-140 to ameliorate RA symptoms, a Collagen-Induced Arthritis (CIA) Model in DBA1/J mice was performed by Washington Biotechnology, Inc. (Baltimore, USA). Each group of ten mice was subjected to a single subcutaneous injection of collagen/complete Freund's Adjuvant emulsion (0.05 ml/mouse; 100 μg collagen/CFA). After 20 days (day 21), mice were booster injected with collagen (0.05 ml/mouse; 100 μg/mouse collagen in Incomplete Freund's Adjuvant). On day 28, mice were scored for their Arthritic Index (AI) and 14 days intraperitoneally dosed twice daily with 6 mg/kg, 10 mg/kg and 14 mg/kg C25-140, respectively. Mice were scored of macroscopic signs of arthritis daily. Thereby, the following scoring index was applied to each individual paw: 0=no visible effects of arthritis; 1=edema and/or erythema of 1 digit; 2=edema and/or erythema of 2 digits; 3=edema and/or erythema of more than 2 digits; 4=severe arthritis of entire paw and digits. Single paw scores were added and recorded. On day 42, animals were euthanized, limbs were collected and histopathology was performed using Toluidine blue staining with scoring of several parameters.

MURF/TRIM63 = molecular target: T2, MURF/TRIM63 (Homo sapiens, UniProt Q969Q1); test: In vitro ubiquitination assay, MURF/TRIM63; type: biochemical; settings: K48 chain formation
T2 construct: purchased Boston Biochem one of K-102, K-260, K-200B, K-220, K-240, K-270
T2 sequence (Q969Q1 whole entry): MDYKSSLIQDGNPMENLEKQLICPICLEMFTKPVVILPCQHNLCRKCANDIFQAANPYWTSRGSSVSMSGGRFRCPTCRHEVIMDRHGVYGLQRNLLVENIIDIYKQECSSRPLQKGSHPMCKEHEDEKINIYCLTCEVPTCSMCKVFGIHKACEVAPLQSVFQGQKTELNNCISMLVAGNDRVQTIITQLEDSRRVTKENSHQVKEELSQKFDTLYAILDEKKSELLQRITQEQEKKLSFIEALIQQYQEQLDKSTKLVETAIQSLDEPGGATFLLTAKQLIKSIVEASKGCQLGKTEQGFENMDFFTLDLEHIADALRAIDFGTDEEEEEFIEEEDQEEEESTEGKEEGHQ
Description: For analysis of clAP1, MDM2, TRIM63, RNF4, ITCH and E6AP mediated poly-ubiquitination, the respective ubiquitin ligase kit from Boston Biochem (K-102, K-260, K-200B, K-220, K-240 and K-270) was used. Here, reaction buffer, E1, E2 and E3 enzyme (and p53 substrate in case of MDM2) were mixed and pre-incubated with compound or DMSO for 5 minutes at room temperature before adding Mg^2+-ATP and mono-ubiquitin for reaction start. Ubiquitination was visualized by Western Blot analyses.

- IC50 (TRAF6-UBC13 interaction): ≤ 3 µM
- S5A ubiquitination by MURF/TRIM63 (MURF/TRIM63): not affected
SMILES: Cc1nn(-c2ccc3nnc(C)n3n2)c(C)c1CCC(=O)N1CCC(Cc2ccccc2)CC1 [Compound 3, 1-(4-benzylpiperidin-1-yl)-3-(3,5-dimethyl-1-(3-methyl-[1,2,4]triazolo[4,3-b]pyridazin-6-yl)-1H-pyrazol-4-yl)propan-1-one]
- IL-1β-induced target gene expression (ICAM-1, A20 mRNA) (ICAM-1 and A20): diminished
- TNFα induced NF-κB target gene expression (ICAM-1, A20 mRNA) (ICAM-1 and A20; TNFα): also affected
- TRAF6 auto-ubiquitination upon TCR stimulation [1]: dose-dependently reduced
- arthritic index (AI) ([2]; 10 mg/kg and 14 mg/kg IP twice daily, 14 days): almost completely ameliorated
- histology of limbs (summed scores, inflammation, pannus, cartilage damage, bone resorption) ([2]; 6, 10, 14 mg/kg IP twice daily): dose-dependently improves
- body weight ([2]; throughout the study): did not show any signs of reduction
